Reference: publication PMC11191317, “PNSC928, a plant-derived compound, specifically disrupts CtBP2-p300 interaction and reduces inflammation in mice with acute respiratory distress syndrome” (Biology Direct, 2024)

What was measured:
[1] = tested on: MPAEpiC, RAW264.7, FL83B, TKPTS, and HL-1 cells; assay: Cell viability assay in normal cell lines; format: cell-based, mouse; details: for Cell growth (cell viability assay): assessed every 24 h for 5 days; for Cell growth (cell viability) at lower doses: co-treated with LPS, MTOB 5 mM, NSC95397 10 µM, C646 3 µM, A-485 5 nM, TPCA1 150 nM, BOT64 1 µM
From the text: Mouse pulmonary alveolar epithelial cells (MPAEpiC) were sourced from ScienCell Research Laboratories (Carlsbad, CA, USA; #M3200-57). The mouse macrophage cell line RAW 264.7 (#TIB-71), the mouse liver hepatocyte cell line FL83B (#CRL-2390), and the mouse kidney epithelial-like cell line TKPTS (#CRL-3361) were sourced from the American Type Culture Collection (ATCC) (Manassas, VA, USA). Additionally, the mouse cardiac muscle cell line HL-1 (SCC065) was acquired from Sigma-Aldrich. All cell lines were maintained in Dulbecco’s Modified Eagle Medium (DMEM) (Thermo Fisher; #A1048901) fortified with 10% fetal bovine serum (FBS) (Thermo Fisher; #A5256701) and a combination of 100 U/mL penicillin and streptomycin (Thermo Fisher; #15,140,122). Cells were cultured in a 37 °C incubator with 5% CO2, and the medium was changed every 2–3 days. For targeted gene manipulation, cells were transfected with gene-specific short hairpin RNAs (shRNAs) (Table S1) or plasmids (Table S2). Transfection was facilitated using the Lipofectamine 3000 Transfection Reagent (Thermo Fisher; #L3000001) as per the manufacturer’s recommended protocol.
(§1) For LPS treatment, different knockdown (KD) cell lines—Control^KD, CtBP2^KD, p300^KD, and p65^KD, all derived from MPAEpiC—were seeded in 12-well plates and cultured at 37 °C until reaching 80% confluence. The cells were then treated with 200 ng/mL of LPS for 6 h, washed three times with PBS, and subjected to the required experiments. For experiments involving inhibitors of CtBP2, p300, and NF-κB, as well as the compound PNSC928, MPAEpiC, RAW264.7, FL83B, TKPTS, and HL-1 cells were seeded in 12-well plates and cultured at 37 °C to reach 80% confluence. Cells were then cotreated with 200 ng/mL LPS along with varying concentrations of the following chemicals: MTOB (0, 5, 10, or 20 mM), NSC95397 (0, 10, 20, or 40 µM), C646 (0, 3, 6, or 12 µM), A-485 (0, 5, 10, or 20 nM), TPCA1 (0, 150, 300, or 600 nM), BOT64 (0, 1, 2, or 4 µM), or PNSC928 (0, 11.8, 23.6, or 47.2 µM). After 6 h of treatment, cells were washed three times with PBS before proceeding with further experiments.
Fig. 5 Determination of PNSC928 cytotoxicity and evaluation of PNSC928 effects on the expression levels of CtBP2/p300/NF-κB target genes. (A-E) Cell viability assessment. Five cell lines, including MPAEpiC (A), RAW264.7 (B), FL83B (C), TKPTS (D), and HL-1 (E) were treated with varying concentrations of PNSC928 ([…]). Cell viability was assessed every 24 h for 5 days. (F-I) Effects of PNSC928 on gene expression levels. The RAW264.7 cells were co-treated with LPS and PNSC928 (23.6 and 47.2 µM) for a duration of 6 h. Subsequently, RNA isolation and RT-qPCR analysis were performed to quantify mRNA levels of various genes. (F) The mRNA levels of IL-1B, IL-6, IL-15, IL-18, TNFA, and IFNG. (G) The mRNA levels of CDH1, CDKN1A, CDKN2A, CHRD, PAX6, and BAX. (H) The mRNA levels of NOD2, CCL2, CXCL10, CXCL12, MMP1, and STAT1 mRNA levels, (I) The mRNA levels of MIP2, CCR5, GM-CSF, COX2, and iNOS. n = 3 for each experiment. ns: no significant difference. **P < 0.01; ***P < 0.001
Five cell lines (MPAEpiC, RAW264.7, FL83B, TKPTS, and HL-1) were treated with MTOB (5 and 10 mM), NSC95397 (10 and 20 μM), C646 (3 and 6 μM), A-485 (5 and 10 nM), TCPA1 (150 and 300 nM), and BOT-64 (1 and 2 μM). Cell viability was assessed every 24 hours for 5 days. n=3 for all experiments. *P<0.05.

[2] = tested on: MPAEpiC and RAW264.7 cells; assay: RT-qPCR of CtBP2/p300/NF-κB target genes in MPAEpiC and RAW264.7 cells cotreated with LPS and inhibitors; format: cell-based, mouse; details: LPS cotreatment, 6 h; for Expression of IL-1B, IL-6, IL-15, IL-18, TNFA, NOD2, CCL2, CXCL10, CXCL12, MMP1, and STAT1 / Expression of other genes under investigation (CtBP2 and NF-κB targets): p300 inhibitors; for Expression of IL-1B, IL-6, IL-15, IL-18, TNFA, CDH1, CDKN1A, CDKN2A, CHRD, PAX6, and BAX / Expression of the remaining genes (p300 and NF-κB targets): CtBP2 inhibitors; for Expression levels of IL-1B, IL-6, IL-8, IL-15, TNFA, MIP2, CCR5, GM-CSF, VEGF, COX2, and iNOS / Expression of the other studied genes (CtBP2 and p300 targets): NF-κB inhibitors
Protocol: as §1
RNA was isolated from both cultured cells and mouse lung tissues utilizing the TRIzol Reagent (Invitrogen; Shanghai, China; #15,596,018) in adherence to the manufacturer’s protocol. For each sample, 500 ng of RNA was employed for the synthesis of complementary DNA (cDNA) leveraging the High-Capacity cDNA Reverse Transcription Kit (Thermo Fisher; #4,368,814). Gene expression quantification was carried out using the SYBR GreenER qPCR SuperMix Universal (Thermo Fisher; #1176202K) in combination with the specific primers delineated in Table S3. Subsequent analysis normalized the expression levels to β-Actin, utilizing the 2^−ΔΔCt method.
The RAW264.7 cells were co-treated with LPS and the following compounds: 5 mM MTOB, 10 μM NSC95397, 3 μM C646, 5 nM A-485, 150 nM TPCA1, or 1 μM BOT64 for a duration of 6 hours. Subsequently, RNA isolation and RT-qPCR analysis were performed to quantify mRNA levels of various genes.
The MPAEpiC cells were co-treated with LPS and the following compounds: 5 mM MTOB, 10 μM NSC95397, 3 μM C646, 5 nM A-485, 150 nM TPCA1, or 1 μM BOT64 for a duration of 6 hours. Subsequently, RNA isolation and RT-qPCR analysis were performed to quantify mRNA levels of various genes.

CC(=CCCC1=CCC(C2COC(=O)C2)OC1O)CCC1=C(C)CCCC1(C)C (centres unmarked) [PNSC928]
Cell growth (cell viability assay) ([1]; PNSC928 at 47.2 µM): slight inhibition of cell growth | Cell growth (cell viability assay) ([1]; PNSC928 at lower concentrations (≤ 23.6 µM), all tested cell lines): did not inhibit cell growth

CNC(=O)Nc1ccc2c(c1)CC[C@@]21OC(=O)N(CC(=O)N(Cc2ccc(F)cc2)[C@@H](C)C(F)(F)F)C1=O [A-485]
Expression of IL-1B, IL-6, IL-15, IL-18, TNFA, NOD2, CCL2, CXCL10, CXCL12, MMP1, and STAT1 [2]: significantly modulated | Expression of other genes under investigation (CtBP2 and NF-κB targets) [2]: no discernible impact | Cell growth (cell viability) at lower doses [1]: notable inhibition of cell growth

CSCCC(=O)C(=O)O [MTOB]
Expression of IL-1B, IL-6, IL-15, IL-18, TNFA, CDH1, CDKN1A, CDKN2A, CHRD, PAX6, and BAX [2]: dose-dependent reversal | Expression of the remaining genes (p300 and NF-κB targets) [2]: remained relatively unchanged | Cell growth (cell viability) at lower doses [1]: notable inhibition of cell growth

CC1=NN(c2ccc(C(=O)O)cc2)C(=O)/C1=C\c1ccc(-c2cc(C)c(C)cc2[N+](=O)[O-])o1 [C646]
Expression of IL-1B, IL-6, IL-15, IL-18, TNFA, NOD2, CCL2, CXCL10, CXCL12, MMP1, and STAT1 [2]: significantly modulated | Expression of other genes under investigation (CtBP2 and NF-κB targets) [2]: no discernible impact | Cell growth (cell viability) at lower doses [1]: notable inhibition of cell growth

O=C1C(SCCO)=C(SCCO)C(=O)c2ccccc21 [NSC95397]
Expression of IL-1B, IL-6, IL-15, IL-18, TNFA, CDH1, CDKN1A, CDKN2A, CHRD, PAX6, and BAX [2]: dose-dependent reversal | Expression of the remaining genes (p300 and NF-κB targets) [2]: remained relatively unchanged | Cell growth (cell viability) at lower doses [1]: notable inhibition of cell growth

CC1(C)CC(=O)c2sc(=Nc3ccccc3)oc2C1 [BOT64]
Expression levels of IL-1B, IL-6, IL-8, IL-15, TNFA, MIP2, CCR5, GM-CSF, VEGF, COX2, and iNOS [2]: dose-dependent alteration | Expression of the other studied genes (CtBP2 and p300 targets) [2]: without affecting | Cell growth (cell viability) at lower doses [1]: notable inhibition of cell growth

NC(=O)Nc1sc(-c2ccc(F)cc2)cc1C(N)=O [TPCA1]
Expression levels of IL-1B, IL-6, IL-8, IL-15, TNFA, MIP2, CCR5, GM-CSF, VEGF, COX2, and iNOS [2]: dose-dependent alteration | Expression of the other studied genes (CtBP2 and p300 targets) [2]: without affecting | Cell growth (cell viability) at lower doses [1]: notable inhibition of cell growth
